Biological target: T1, 5-HT1A (Homo sapiens, UniProt P08908)
T1 construct: expressed in transfected cells; host or cells: HEK-293 cells
T1 sequence (P08908 1-422): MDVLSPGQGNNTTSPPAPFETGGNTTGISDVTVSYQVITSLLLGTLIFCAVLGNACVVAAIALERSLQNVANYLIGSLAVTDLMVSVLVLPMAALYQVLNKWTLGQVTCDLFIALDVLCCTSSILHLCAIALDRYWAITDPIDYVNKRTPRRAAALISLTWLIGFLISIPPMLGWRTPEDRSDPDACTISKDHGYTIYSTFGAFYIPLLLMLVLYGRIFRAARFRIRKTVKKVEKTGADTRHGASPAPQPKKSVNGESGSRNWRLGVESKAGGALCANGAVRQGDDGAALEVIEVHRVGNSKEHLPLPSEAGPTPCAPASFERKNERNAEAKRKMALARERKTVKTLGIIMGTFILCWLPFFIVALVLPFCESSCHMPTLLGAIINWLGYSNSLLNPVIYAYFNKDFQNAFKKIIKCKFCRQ
Assay: In vitro radioligand binding assay, 5-HT1A, [3H]8-OH-DPAT
Design: concentration or dose not given beside the values
Conditions: human recombinant (HEK-293 cells)
Description: Certain compounds were tested by in vitro binding assays using standard procedures. […] These receptors and assays are well known to those skilled in the art, as exemplified by the following: Abramovitz, M. et al. (2000), Biochem. Biophys. Acta., 1483: 285-293 (EP4, IP (PGI2)); Aharony, D. et al. (1993), Mol. Pharmacol., 44: 356-363 (NK2); Ardati, A. et al. (1997), Mol. Pharmacol., 51: 816-824 (NOP (ORL1)); Bignon, E. et al. (1999), J. Pharmacol. Exp. Ther. 289: 742-751 (CCK1 (CCKA)); Bloomquist, B. T. et al. (1998), Biochem. Biophys. Res. Commun., 243: 474-479 (GAL2); Brockhaus, M. et al. (1990), Proc. Natl. Acad. Sci. U.S.A., 87: 3127-3131 (TNF-α); Brown, G. B. (1986), J. Neurosci., 6: 2064-2070 (Na+ channel (site 2)); Buchan, K. W. et al. (1994), Brit. J. Pharmacol., 112: 1251-1257 (ETA); Cesura, A. M. et al. (1990), Mol. Pharmacol., 37: 358-366 (MAO-A); Choi, D. S. et al. (1994), FEBS Lett., 352: 393-399 (5-HT2B); Clark, A. F. et al. (1996), Invest. Ophtalmol. Vis. Sci., 37: 805-813 (GR); Couvineau, A. et al. (1985), Biochem. J., 231: 139-143 (VPAC1 (VIP1)); Dorje, F. et al. (1991), J. Pharmacol. Exp. Ther., 256: 727-733 (M1, M2, M3, M4); Ferry, G. et al. (2001), Eur. J. Pharmacol., 417: 77-89 (PPARγ); Fuchs, S. et al. (2001), Mol. Med., 7: 115-124 (ETB); Fuhlendorff, J. et al. (1990), Proc. Natl. Acad. Sci. U.S.A., 87: 182-186 (Y2); Ganapathy M E. et al. (1999), J. Pharmacol. Exp. Ther., 289: 251-260 (sigma (non-selective)); Gopalakrishnan, M. et al. (1996), J. Pharmacol. Exp. Ther., 276: 289-297 (N neuronal α4β2); Greengrass, P. and Bremner, R. (1979), Eur. J. Pharmacol., 55: 323-326 (α1 (non-selective)); Grandy, D. K. et al. (1989), Proc. Natl. Acad. Sci. U.S.A., 86: 9762-9766 (D25); Guard, S. et al. (1993), Eur. J. Pharmacol., 240:177-184 (BB (non-selective)); Heuillet, E. et al. (1993), J. Neurochem., 60: 868-876 (NK1, P2X); Hope, A. G. et al. (1996), Brit. J. Pharmacol., 118: 1237-1245 (5-HT3); Hoyer, D. et al. (1985), Eur. J. Pharmacol., 118: 1-12 (5-HT1B); Hugues, M. et al. (1982), J. Biol. Chem., 257: 2762-2769 (5-HT2A, SKCa channel); Joseph, S. S. et al. (2004), Naun.-Sch. Arch. Pharm., 369: 525-532 (β2); Le, M. T. et al. (2005), Eur. J. Pharmacol., 513: 35-45 (AT1); Le Fur, G. et al. (1983), Life Sci., 33: 449-457) (BZD (peripheral); Lee, Y. M. et al. (1993), J. Biol. Chem., 268: 8164-8169 (CCK2 (CCKB)); Leurs, R. et al. (1994), Brit. J. Pharmacol., 112: 847-854 (H2); Levin, M. C. et al. (2002), J. Biol. Chem., 277: 30429-30435 (11); Lewin, A. H. et al. (1989), Mol. Pharmacol., 35: 189-194 (Cl− channel (GABA-gated)); Lukas, R. J. (1986), J. Neurochem., 46: 1936-1941 (N muscle-type); Luthin, D. R. et al. (1995), Mol. Pharmacol., 47: 307-313; (A2A); Mackenzie, R. G. et al. (1994), Eur. J. Pharmacol., 266: 79-85 (D3); Mulheron, J. G. et al. (1994), J. Biol. Chem., 269: 12954-12962 (5-HT1A); Meng, F. et al. (1993), Proc. Natl. Acad. Sci. U.S.A., 90: 9954-9958 (κ (KOP)); Monsma, F. J. et al. (1993), Mol. Pharmacol., 43: 320-327 (5-HT6); Neote, K. et al. (1993), Cell, 72: 415-425 (CCR1); Pacholczyk, T. et al. (1991), Nature, 350: 350-354 (sst (non-selective, norepinephrine transporter)); Peralta, E. G. et al. (1987), Embo. J., 6: 3923-3929 (M3); Pristupa, Z. B. et al. (1994), Mol. Pharmacol., 45: 125-135 (dopamine transporter); Pruneau, D. et al. (1998), Brit. J. Pharmacol., 125: 365-372 (B2); Rees, S. et al. (1994), FEBS Lett., 355: 242-246 (5-HT5a); Reynolds, I. J. et al. (1986), J. Pharmacol. Exp. Ther., 237: 731-738 (Ca2+ channel (L, verapamil site)); Rinaldi-Carmona, M. et al. (1996), J. Pharmacol. Exp. Ther., 278: 871-878 (CB1); Salvatore, C. A. et al. (1993), Proc. Natl. Acad. Sci. U.S.A., 90: 10365-10369 (A3); Sarau, H. M. et al. (1997), J. Pharmacol. Exp. Ther., 281: 1303-1311 (NK3); Schioth, H. B. et al. (1997), Neuropeptides, 31: 565-571 (MC4); Sharples, C. […]

In order of rising “5HT1a percent inhibition of specific binding” value:
1. Fc1ccc2c(c1)[C@H]([C@@H]1CCCN1)OCC2 [Compound I-5, (2S)-2-((R)-7-fluoroisochroman-1-yl)pyrrolidine]  52%
2. Fc1ccc2c(c1)CCO[C@H]2[C@@H]1CCN1 [Compound I-90, (S)-2-((R)-6-fluoroisochroman-1-yl)azetidine]  64%
3. Clc1ccc2c(c1)[C@H]([C@@H]1CCCN1)OCC2 [Compound I-29, (S)-2-((R)-7-chloroisochroman-1-yl)pyrrolidine]  71%
4. Fc1ccc2c(c1)CCO[C@H]2[C@@H]1CCCN1 [Compound I-9, (S)-2-((R)-6-fluoroisochroman-1-yl)pyrrolidine]  77%
5. Fc1cccc2c1[C@H]([C@@H]1CCCN1)OCC2 [Compound I-1, (S)-2-((R)-8-fluoroisochroman-1-yl)pyrrolidine]  79%
6. Fc1cccc2c1[C@H]([C@@H]1CCN1)OCC2 [Compound I-83, (S)-2-((R)-8-fluoroisochroman-1-yl)azetidine]  87%
